{
  "source": "paper PMC11317440",
  "about": "“Soloxolone para-methylanilide effectively suppresses aggressive phenotype of glioblastoma cells including TGF-β1-induced glial-mesenchymal transition in vitro and inhibits growth of U87 glioblastoma xenografts in mice” (Frontiers in Pharmacology, 2024)",
  "key": {"[1]": {"test_system": "U87 glioblastoma xenograft", "assay": "U87 glioblastoma xenograft model", "format": "in vivo, athymic nude mice", "conditions": "7 20 mg/kg i.p.", "procedure": "A xenograft model of tumor progression was induced by subcutaneous (s.c.) implantation of U87 glioblastoma cells (2×10^7 cells/mL) suspended in 0.1 mL of saline buffer into the left flank of athymic nude mice. On day 4 after tumor transplantation, the mice were divided into four groups: (1) mice received intraperitoneal (i.p.) injections of 10% Tween-80 (vehicle) (n = 6); (2) mice received i.p. injections of compound 7 in 10% Tween-80 at a dose of 20 mg/kg (n = 5); (3) mice received i.p. injections of TMZ in saline buffer at a dose of 10 mg/kg (n = 5); (4) mice received combination therapy of compound 7 and TMZ at the same dosage and administration route (n = 6). Compound 7 was administered three times per week; in total seven injections were performed. TMZ was administered daily except weekends; in total eleven injections were performed. During the experiment, the tumor volumes were determined three times per week using caliper measurements and were calculated as V = (D × d^2)/2, where D is the longest diameter of the tumor node and d is the shortest diameter of the tumor node perpendicular to D. Mice were sacrificed on day 19 after tumor transplantation and material (tumor nodes, livers, and kidneys) was collected for subsequent analysis."}, "U118 cells": {"test_system": "U118 cells", "assay": "Colony formation assay, U118 cells", "format": "cell-based", "conditions": "Homo sapiens, 240 h, 10 days", "procedure": "U87, U118 and EPNT-5 cells were seeded at a density of 200 cells/well in 96-well plates and treated with increasing concentrations of compound 7 (0–1,000 nM) dissolved in 10% FBS-containing DMEM (n = 5). On day 10, colonies were fixed with 4% formaldehyde and stained with crystal violet dye (0.1% w/v). Images were captured using the iBright 1,500 Imaging System (Invitrogen, USA) and the area of colonies with a minimum diameter of 100 µm was calculated using ImageJ. In the case of overlapping colonies, their total area was calculated. Finally, the area of the formed cell colonies was summed and normalized to the total colony area in the control."}, "U87 glioblastoma cells": {"test_system": "U87 glioblastoma cells", "assay": "MTT cell viability assay, U87 cells, 48 h", "format": "cell-based, human", "procedure": "Cells were seeded in quadruplicate in 96-well plates at 10,000 cells/well and allowed to adhere overnight. The medium was then replaced with serum-free DMEM containing increasing concentrations of soloxolone amides for 48 h. After incubation, 3-(4,5-dimethylthiazol-2-yl)-2,5-diphenyltetrazolium bromide (MTT dye) was added at a final concentration of 0.5 mg/mL and left for 2 h. The resulting formazan crystals were dissolved in DMSO and the optical density was measured at 570 nm using a Multiscan RC plate reader (Thermo LabSystems, Helsinki, Finland)."}, "[2]": {"test_system": "N-cadherin, fibronectin, Slug, OLIG2 expression in TGF-β1-induced U87 cells", "assay": "qRT-PCR of GMT markers in U87 cells", "format": "cell-based, human", "conditions": "48 h", "procedure": "Total RNA was extracted using TRIzol Reagent (Ambion, Austin, TX, USA) according to the manufacturer’s protocol. Subsequently, the first strand cDNA was synthesized from 4 μg of total RNA using an oligo (dT)18 primers and M-MuLV-RH revertase (Biolabmix, Novosibirsk, Russia). Finally, RT-qPCR was performed using specific primers (Table 1) and BioMaster SYBR Blue reagent kit (Biolabmix, Novosibirsk, Russia). Relative expression was determined by normalization to the housekeeping gene HPRT using the 2^−ΔΔCT method (Livak and Schmittgen 2001)."}, "[3]": {"assay": "Toxicity assessment in U87 glioblastoma-bearing mice", "format": "in vivo, athymic nude mice", "conditions": "7 20 mg/kg i.p. or TMZ 10 mg/kg i.p. injected alone", "procedure": "During the experiment, the general status and body weight of the animals were monitored. At the end of the experiment, livers and kidneys were collected and organ indices were calculated as (organ weight/body weight) × 100%, followed by the normalization of organ indices of experimental mice to organ indices of control mice."}, "SMAD2/3": {"test_system": "SMAD2/3", "assay": "SMAD2/3 nuclear translocation (immunofluorescence), U87 cells", "format": "cell-based, human", "conditions": "U87, 7 50 nM pretreatment 48 h, TGF-β1 50 ng/mL 1 h", "procedure": "U87 cells (150,000 cells/well) were allowed to attach to glass coverslips in 24-well plates prior to 48-h incubation with compound 7 (50 nM) under serum-free conditions, followed by stimulation with TGF-β1 (50 ng/mL) for 1 h. After fixation in 4% formaldehyde for 20 min, cells were incubated with primary antibodies against Smad2/3 (1:100, ab202445) for 1 h under permeabilizing conditions (0.1% Triton X100, 5 mg/mL BSA, 37°C) and Alexa Fluor 488-conjugated secondary antibodies (1:500, ab150077) for 1 h in the dark. Finally, nuclei were stained with DAPI (1 μg/mL) for 10 min and cells were mounted on glass slides with Fluoromount-G (Thermo Fisher Scientific, Rockford, IL, USA). Images were captured using a LSM710 confocal microscope (Zeiss, Oberkochen, Germany) at ×40 magnification. Nuclear translocation was quantified by measuring the ratio of nuclear to perinuclear intensity of Alexa Fluor 488 in CellProfiler software (Broad Institute, Cambridge, MA, USA) for 50 cells per experimental group (n = 3)."}},
  "data": [
    {"molecule": "Cc1ccc(NC(=O)[C@@]2(C)CC[C@]3(C)CC[C@]4(C)[C@H](C(=O)C=C5[C@@]6(C)C=C(C#N)C(=O)C(C)(C)C6CC[C@]54C)[C@@H]3C2)cc1", "note": "(stereo partly shown) [compound 7, N-p-tolyl-2-cyano-3,12-dioxo-18βH-olean-9(11),1(2)-dien-30-amide]", "values": [
      {"measurement": "reduction in tumor volume compared to the vehicle group", "setting": "[1]; day 11", "value": 2.1, "unit": "fold"},
      {"measurement": "reduction in tumor volume compared to the vehicle group", "setting": "[1]; day 13", "value": 3.2, "unit": "fold"},
      {"measurement": "reduction in tumor volume compared to the vehicle group", "setting": "[1]; day 15, TMZ 10 mg/kg i.p.", "value": 6.6, "unit": "fold"},
      {"measurement": "reduction in tumor volume compared to the vehicle group", "setting": "[1]; day 18, TMZ 10 mg/kg i.p.", "value": 7.2, "unit": "fold"},
      {"measurement": "reduction in tumor weight compared to the vehicle", "setting": "[1]; end of the experiment (day 19), TMZ 10 mg/kg i.p.", "value": 8, "unit": "fold"},
      {"measurement": "inhibition at 0.05 µM", "setting": "U118 cells; U118, 7 50 nM", "value": 26.8, "unit": "%"},
      {"measurement": "inhibition at 0.1 µM", "setting": "U118 cells; U118, 7 100 nM", "value": 42.8, "unit": "%"},
      {"measurement": "relative cytotoxicity", "setting": "U87 glioblastoma cells; 48 h of incubation, U87", "value": "high"},
      {"measurement": "IC50", "setting": "U87 glioblastoma cells; Homo sapiens, U-87 MG, 48 h", "value": 161, "unit": "nM"},
      {"measurement": "MNTC", "setting": "U87 glioblastoma cells; Homo sapiens, U-87 MG, 48 h, read-out: non-toxic concentration that reduced U87 cell viability by less than 10%", "value": 50, "unit": "nM"},
      {"measurement": "upregulation of OLIG2", "setting": "[2]; TGF-β1-induced U87 cells, 7 50 nM", "value": 2, "unit": "fold"},
      {"measurement": "reduction of N-cadherin expression compared to TGF-β1-stimulated cells", "setting": "[2]; U87, 7 50 nM, TGF-β1 50 ng/mL", "value": 67.6, "unit": "%"},
      {"measurement": "reduction of Slug expression compared to TGF-β1-stimulated cells", "setting": "[2]; U87, 7 50 nM, TGF-β1 50 ng/mL", "value": 35.8, "unit": "%"},
      {"measurement": "reduction of fibronectin expression compared to TGF-β1-stimulated cells", "setting": "[2]; U87, 7 50 nM, TGF-β1 50 ng/mL", "value": 39.2, "unit": "%"},
      {"measurement": "toxic effects (body weight and organ indices)", "setting": "[3]", "value": "no toxic effects"},
      {"measurement": "reduction of nuclear-cytoplasmic ratio of SMAD2/3", "setting": "SMAD2/3", "value": 52, "unit": "%"}
    ]}
  ]
}
